From patent US9499550B2 (BRISTOL-MYERS SQUIBB COMPANY, priority 2012, dated 2016)
Where two headings read alike, the source gives them in different places.

How the values were obtained:
[1] = tested on: HCV genotype 1a (H77 strain) replicon in HUH-7 cells; assay: HCV replicon luciferase reporter assay, genotype 1a; type: cell-based; conditions: Hepatitis C virus, Huh-7, 72 h, 3 days incubation, read-out: LE_1a (EC50, range)
How it was run: (§1)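 Replicon inhibition for both genotypes was measured as Renilla luciferase signal (EnduRen, 7.5 μM final, 2 h) after 3-day, 37° C exposure of replicon-bearing HUH-7 cells in 4% FCS DMEM, 0.5% DMSO. The 1b construct carries S1179I; the 1a H77 construct carries P1496L and S2204I. Twenty-point, 3-fold dilutions were fitted four-parametrically for EC50, and CC50 was taken from multiplexed Cell Titer-Blue.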

[2] = tested on: HCV genotype 1b (Con1) replicon in HUH-7 cells; assay: HCV replicon luciferase reporter assay, genotype 1b; type: cell-based; conditions: Hepatitis C virus, Huh-7, 72 h, 3 days incubation, read-out: LE_1b (EC50, range)
How it was run: as §1

[3] = HCV genotype 1a replicon luciferase assay, range class
[4] = HCV genotype 1b replicon luciferase assay, range class
[5] = GETYPE1A, HCV genotype 1a replicon luciferase
[6] = GETYPE1B, HCV genotype 1b replicon luciferase

Row | Structure (SMILES) | EC50 [1, 3] | EC50 [2, 4] | EC50 [1, 5] | EC50 [2, 6] | further results
1 | COc1ccc2c(O[C@@H]3C[C@H]4C(=O)N[C@]5(C(=O)NS(=O)(=O)C6CC6)C[C@H]5/C=C\CC[C@@H](C)C[C@@H](C)[C@H](NC(=O)O[C@@H]5C[C@@H]6C[C@@H]6C5)C(=O)N4C3)nc(-c3ccc(OC(C)C)c(F)c3)cc2c1 [Compound 3070, (1R,3r,5S)-bicyclo[3.1.0]hexan-3-yl((2R,6S,7R,9R,13aS,14aR,16aS,Z)-14a-((cyclopropylsulfonyl)carbamoyl)-2-((3-(3-fluoro-4-isopropoxyphenyl)-6-methoxyisoquinolin-1-yl)oxy)-7,9-dimethyl-5,16-dioxo-1,2,3,5,6,7,8,9,10,11,13a,14,14a,15,16,16a-hexadecahydrocyclopropa[e]pyrrolo[1,2-a][1,4]diazacyclopentadecin-6-yl)carbamate] | < 5.46 nM | < 5.46 nM |  |  | 
2 | COc1cnc(O[C@@H]2C[C@H]3C(=O)N[C@]4(C(=O)NS(=O)(=O)C5CC5)C[C@H]4/C=C\CC[C@H](C)C[C@@H](C)[C@H](NC(=O)OC(C)(C)C)C(=O)N3C2)c2cc(Cl)ccc12 [Compound 1160, tert-butyl ((2R,6S,7R,9S,13aS,14aR,16aS,Z)-2-((7-chloro-4-methoxyisoquinolin-1-yl)oxy)-14a-((cyclopropylsulfonyl)carbamoyl)-7,9-dimethyl-5,16-dioxo-1,2,3,5,6,7,8,9,10,11,13a,14,14a,15,16,16a-hexadecahydrocyclopropa[e]pyrrolo[1,2-a][1,4]diazacyclopentadecin-6-yl)carbamate] | 4.82 to 103 nM | < 5.46 nM |  |  | 
3 | CCC1(S(=O)(=O)NC(=O)[C@@]23C[C@H]2/C=C\CC[C@H](C)C[C@@H](C)[C@H](NC(=O)OC(C)(C)C(F)(F)F)C(=O)N2C[C@H](Oc4nccc5cc(OC)c(F)cc45)C[C@H]2C(=O)N3)CC1 [Compound 4126] |  |  | < 5.46 nM | < 5.46 nM | 
4 | COc1ccc2c(O[C@@H]3C[C@H]4C(=O)N[C@]5(C(=O)NS(=O)(=O)C6(CF)CC6)C[C@H]5/C=C\CC[C@@H](C)C[C@@H](C)[C@H](NC(=O)OC(C)(C)C(F)(F)F)C(=O)N4C3)nc(-c3ccc(OC(C)C)cc3)cc2c1 [Compound 4128] |  |  | < 5.46 nM | < 5.46 nM | 
5 | COc1nnc(O[C@@H]2C[C@H]3C(=O)N[C@]4(C(=O)NS(=O)(=O)C5(C)CC5)C[C@H]4/C=C\CC[C@H](C)C[C@@H](C)[C@H](NC(=O)OC(C)(C)C(F)(F)F)C(=O)N3C2)c2ccccc12 [Compound 5007, 1,1,1-trifluoro-2-methylpropan-2-yl((2R,6S,7R,9S,13aS,14aR,16aS,Z)-2-((4-methoxyphthalazin-1-yl)oxy)-7,9-dimethyl-14a-(((1-methylcyclopropyl)sulfonyl)carbamoyl)-5,16-dioxo-1,2,3,5,6,7,8,9,10,11,13a,14,14a,15,16,16a-hexadecahydrocyclopropa[e]pyrrolo[1,2-a][1,4]diazacyclopentadecin-6-yl)carbamate] |  |  |  |  | EC50 ([1]; HCV genotype 1a replicon luciferase): < 5.46 nM; EC50 ([2]; HCV genotype 1b replicon luciferase): < 5.46 nM
6 | COc1cnc(O[C@@H]2C[C@H]3C(=O)N[C@]4(C(=O)NS(=O)(=O)C5(CF)CC5)C[C@H]4/C=C\CC[C@@H](C)C[C@@H](C)[C@H](NC(=O)OC4(C(F)(F)F)CCOC4)C(=O)N3C2)c2ccccc12 (stereo partly drawn) [Compound 1066, 3-(trifluoromethyl)tetrahydrofuran-3-yl((2R,6S,7R,9R,13aS,14aR,16aS,Z)-14a-(((1-(fluoromethyl)cyclopropyl)sulfonyl)carbamoyl)-2-((4-methoxyisoquinolin-1-yl)oxy)-7,9-dimethyl-5,16-dioxo-1,2,3,5,6,7,8,9,10,11,13a,14,14a,15,16,16a-hexadecahydrocyclopropa[e]pyrrolo[1,2-a][1,4]diazacyclopentadecin-6-yl)carbamate] | < 5.46 nM | < 5.46 nM |  |  | 
7 | COc1ccc2c(O[C@@H]3C[C@H]4C(=O)N[C@]5(C(=O)NS(=O)(=O)C6(CF)CC6)C[C@H]5/C=C\CC[C@@H](C)C[C@@H](C)[C@H](NC(=O)OC(C)(C)C(F)(F)F)C(=O)N4C3)nccc2c1 [Compound 4151] |  |  | < 5.46 nM | < 5.46 nM | 
